Measurements taken from patent publication US8440698B2, “3-(4-((1H-imidazol-1-yl)methyl)phenyl)-5-aryl-1,2,4-oxadiazole derivatives as sphingosine-1 phosphate receptors modulators” (Allergan, Inc., priority 2010, dated 2013).

Biological target: T1, human S1P1 receptor (Homo sapiens, UniProt P21453)
T1 construct: expressed in transfected cells; membranes used
Test: GTP γ35S binding assay for S1P1 activity
Format: biochemical
Conditions: for Emax at 5 µM: intrinsic activity at 5 μM, read-out: % S1P1 STIMULATION @ 5 μM; for EC50: membranes of cells stably expressing S1P1, test concentrations 0.08 to 5,000 nM, read-out: S1P1 GTPγ^35S EC50
Method: Novel compounds were synthesized and tested for S1P1 activity using the GTP γ^35S binding assay. These compounds may be assessed for their ability to activate or block activation of the human S1P1 receptor in cells stably expressing the S1P1 receptor. GTP γ^35S binding was measured in the medium containing (mM) HEPES 25, pH 7.4, MgCl2 10, NaCl 100, dithitothreitol 0.5, digitonin 0.003%, 0.2 nM GTP γ^35S, and 5 μg membrane protein in a volume of 150 μl. Test compounds were included in the concentration range from 0.08 to 5,000 nM unless indicated otherwise. Membranes were incubated with 100 μM 5′-adenylylimmidodiphosphate for 30 min, and subsequently with 10 μM GDP for 10 min on ice. Drug solutions and membrane were mixed, and then reactions were initiated by adding GTP γ^35S and continued for 30 min at 25° C. Reaction mixtures were filtered over Whatman GF/B filters under vacuum, and washed three times with 3 mL of ice-cold buffer (HEPES 25, pH7.4, MgCl2 10 and NaCl 100). Filters were dried and mixed with scintillant, and counted for ^35S activity using a β-counter. Agonist-induced GTP γ^35S binding was obtained by subtracting that in the absence of agonist. Binding data were analyzed using a non-linear regression method. In case of antagonist assay, the reaction mixture contained 10 nM S1P in the presence of test antagonist at concentrations ranging from 0.08 to 5000 nM.

T1 sequence (P21453 whole entry): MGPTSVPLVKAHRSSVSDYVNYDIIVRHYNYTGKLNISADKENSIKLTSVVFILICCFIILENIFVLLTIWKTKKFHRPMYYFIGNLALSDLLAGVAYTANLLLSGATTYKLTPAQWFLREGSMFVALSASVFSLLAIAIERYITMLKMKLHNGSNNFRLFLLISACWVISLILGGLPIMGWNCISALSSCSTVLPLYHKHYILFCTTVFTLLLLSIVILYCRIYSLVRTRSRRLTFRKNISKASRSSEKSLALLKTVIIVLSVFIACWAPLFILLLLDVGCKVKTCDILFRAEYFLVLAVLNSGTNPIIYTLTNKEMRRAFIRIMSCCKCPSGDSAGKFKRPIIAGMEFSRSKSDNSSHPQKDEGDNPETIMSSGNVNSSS

Row | Compound | Emax at 5 µM [%] | EC50 [nM]
1 | CC(C)Oc1ccc(-c2nc(-c3ccc(Cn4ccnc4)cc3Cl)no2)cc1[N+](=O)[O-] [3-[2-chloro-4-(1H-imidazol-1-ylmethyl)phenyl]-5-(4-isopropoxy-3-nitrophenyl)-1,2,4-oxadiazole] | 92.3 | 8.79
2 | CC(C)Oc1ccc(-c2nc(-c3ccc(Cn4ccnc4)cc3Cl)no2)cc1C(F)(F)F [3-[2-chloro-4-(1H-imidazol-1-ylmethyl)phenyl]-5-[4-isopropoxy-3-(trifluoromethyl)phenyl]-1,2,4-oxadiazole] | 79.6 | 3.55
3 | Cc1cc(-c2nc(-c3ccc(Cn4ccnc4)cc3C(F)(F)F)no2)ccc1OC(C)C [3-[4-(1H-imidazol-1-ylmethyl)-2-(trifluoromethyl)phenyl]-5-(4-isopropoxy-3-methylphenyl)-1,2,4-oxadiazole] | 7.4 | –
4 | CC(C)Oc1ccc(-c2nc(-c3ccc(Cn4ccnc4)cc3C(F)(F)F)no2)cc1[N+](=O)[O-] [3-[4-(1H-imidazol-1-ylmethyl)-2-(trifluoromethyl)phenyl]-5-(4-isopropoxy-3-nitrophenyl)-1,2,4-oxadiazole] | 79.4 | 6.37
5 | CC(C)Oc1ccc(-c2nc(-c3ccc(Cn4ccnc4)cc3C(F)(F)F)no2)cc1C(F)(F)F [3-[4-(1H-imidazol-1-ylmethyl)-2-(trifluoromethyl)phenyl]-5-[4-isopropoxy-3-(trifluoromethyl)phenyl]-1,2,4-oxadiazole] | 80.9 | 62.4
6 | CC(C)Oc1ccc(-c2nc(-c3ccc(Cn4ccnc4)cc3C(F)(F)F)no2)cc1Br [5-(3-Bromo-4-isopropoxy-phenyl)-3-(4-imidazol-1-ylmethyl-2-trifluoromethyl-phenyl)-[1,2,4]oxadiazole] | 100 | 102
7 | CC(C)COc1ccc(-c2nc(-c3ccc(Cn4ccnc4)cc3C(F)(F)F)no2)cc1Br [5-(3-bromo-4-isobutoxyphenyl)-3-[4-(1H-imidazol-1-ylmethyl)-2-(trifluoromethyl)phenyl]-1,2,4-oxadiazole] | 98.3 | 144
8 | CC(C)Oc1ccc(-c2nc(-c3ccc(Cn4ccnc4)cc3Cl)no2)cc1Br [5-(3-bromo-4-isopropoxyphenyl)-3-[2-chloro-4-(1H-imidazol-1-ylmethyl)phenyl]-1,2,4-oxadiazole] | 102 | 29.7
9 | CC(C)Oc1ccc(-c2nc(-c3ccc(Cn4ccnc4)cc3C(F)(F)F)no2)cc1C#N [5-[3-(4-Imidazol-1-ylmethyl-2-trifluoromethyl-phenyl)-[1,2,4]oxadiazol-5-yl]-2-isopropoxy-benzonitrile] | 97.6 | 5.22
10 | FC(F)(F)c1cc(Cn2ccnc2)ccc1-c1noc(-c2ccc(OC3CC3)c(Br)c2)n1 [5-[3-bromo-4-(cyclopropyloxy)phenyl]-3-[4-(1H-imidazol-1-ylmethyl)-2-(trifluoromethyl)phenyl]-1,2,4-oxadiazole] | 89.6 | 119
11 | CC(C)Oc1ccc(-c2nc(-c3ccc(Cn4ccnc4)cc3Cl)no2)cc1C#N [5-{3-[2-chloro-4-(1H-imidazol-1-ylmethyl)phenyl]-1,2,4-oxadiazol-5-yl}-2-isopropoxybenzonitrile] | 94.9 | 4.56
12 | CC1CCCCN1c1ccc(-c2nc(-c3ccc(Cn4ccnc4)cc3)no2)cc1C#N (stereo not shown) [5-{3-[4-(1H-imidazol-1-ylmethyl)phenyl]-1,2,4-oxadiazol-5-yl}-2-(2-methylpiperidin-1-yl)benzonitrile] | 99.9 | 130
13 | Brc1cc(-c2nc(-c3ccc(Cn4ccnc4)cc3)no2)ccc1OC1CC1 [Compound 1, 5-(3-Bromo-4-cyclopropoxy-phenyl)-3-(4-imidazol-1-ylmethyl-phenyl)-[1,2,4]oxadiazole] | 99.9 | 14.4
14 | Cc1cc(Cn2ccnc2)ccc1-c1noc(-c2ccc(OC3CC3)c(Br)c2)n1 [Compound 2, 5-(3-Bromo-4-cyclopropoxy-phenyl)-3-(4-imidazol-1-ylmethyl-2-methyl-phenyl)-[1,2,4]oxadiazole] | 96 | 32
15 | CC(C)Oc1ccc(-c2nc(-c3ccc(Cn4ccnc4)cc3)no2)cc1C(F)(F)F [Compound 3, 3-(4-Imidazol-1-ylmethyl-phenyl)-5-(4-isopropoxy-3-trifluoromethyl-phenyl)-[1,2,4]oxadiazole] | 95.6 | 0.51
16 | CC(C)COc1ccc(-c2nc(-c3ccc(Cn4ccnc4)cc3)no2)cc1C(F)(F)F [Compound 4, 3-(4-Imidazol-1-ylmethyl-phenyl)-5-(4-isobutoxy-3-trifluoromethyl-phenyl)-[1,2,4]oxadiazole] | 72.2 | 998

Row | Compound | Emax at 5 µM [%] | EC50 [nM]
17 | FC(F)(F)c1cc(-c2nc(-c3ccc(Cn4ccnc4)cc3)no2)ccc1OC1CCCCC1 [Compound 5, 5-(4-Cyclohexyloxy-3-trifluoromethyl-phenyl)-3-(4-imidazol-1-ylmethyl-phenyl)-[1,2,4]oxadiazole] | 91.8 | 149
18 | Cc1cc(Cn2ccnc2)ccc1-c1noc(-c2ccc(OC(C)C)c(C(F)(F)F)c2)n1 [Compound 6, 3-(4-Imidazol-1-ylmethyl-2-methyl-phenyl)-5-(4-isopropoxy-3-trifluoromethyl-phenyl)-[1,2,4]oxadiazole] | 95.5 | 3.38
19 | CC(C)Oc1ccc(-c2nc(-c3ccc(Cn4ccnc4)cc3)no2)cc1[N+](=O)[O-] [Compound 7, 3-(4-Imidazol-1-ylmethyl-phenyl)-5-(4-isopropoxy-3-nitro-phenyl)-[1,2,4]oxadiazole] | 118 | 3.24
20 | CC(C)COc1ccc(-c2nc(-c3ccc(Cn4ccnc4)cc3)no2)cc1C#N [Compound 8, 5-[3-(4-Imidazol-1-ylmethyl-phenyl)-[1,2,4]oxadiazol-5-yl]-2-isobutoxy-benzonitrile] | 75.9 | 62
21 | CC(C)COc1ccc(-c2nc(-c3ccc(Cn4ccnc4)cc3)no2)cc1Br [Compound 9, 5-(3-Bromo-4-isobutoxy-phenyl)-3-(4-imidazol-1-ylmethyl-phenyl)-[1,2,4]oxadiazole] | 86.2 | 28.6
22 | CC(C)Cc1ccc(-c2nc(-c3ccc(Cn4ccnc4)cc3)no2)cc1 [Compound 10, 3-(4-Imidazol-1-ylmethyl-phenyl)-5-(4-isobutyl-phenyl)-[1,2,4]oxadiazole] | 79.8 | 543
23 | CC(C)Oc1ccc(-c2nc(-c3ccc(Cn4ccnc4)cc3)no2)cc1 [Compound 11, 3-(4-Imidazol-1-ylmethyl-phenyl)-5-(4-isopropoxy-phenyl)-[1,2,4]oxadiazole] | 92.8 | 453
24 | CC(C)Oc1ccc(-c2nc(-c3ccc(Cn4ccnc4)cc3)no2)cc1C#N [Compound 12, 5-[3-(4-Imidazol-1-ylmethyl-phenyl)-[1,2,4]oxadiazol-5-yl]-2-isopropoxy-benzonitrile] | 94.6 | 3.31
25 | Cc1cc(Cn2ccnc2)ccc1-c1noc(-c2ccc(OC(C)C)c(C#N)c2)n1 [Compound 13, 5-[3-(4-Imidazol-1-ylmethyl-2-methyl-phenyl)-[1,2,4]oxadiazol-5-yl]-2-isopropoxy-benzonitrile] | 96.4 | 4.76
26 | CC(C)Oc1ccc(-c2nc(-c3ccc(Cn4ccnc4)cc3)no2)cc1Br [Compound 14, 5-(3-Bromo-4-isopropoxy-phenyl)-3-(4-imidazol-1-ylmethyl-phenyl)-[1,2,4]oxadiazole] | 93.9 | 0.92
27 | Cc1cc(Cn2ccnc2)ccc1-c1noc(-c2ccc(OC(C)C)c(Br)c2)n1 [Compound 15, 5-(3-Bromo-4-isopropoxy-phenyl)-3-(4-imidazol-1-ylmethyl-2-methyl-phenyl)-[1,2,4]oxadiazole] | 109 | 19.6
28 | CC(C)Oc1ccc(-c2nc(-c3ccc(Cn4ccnc4)cc3)no2)cc1Cl [Compound 16, 5-(3-Chloro-4-isopropoxy-phenyl)-3-(4-imidazol-1-ylmethyl-phenyl)-[1,2,4]oxadiazole] | 99.8 | 2.79
29 | Cc1cc(-c2nc(-c3ccc(Cn4ccnc4)cc3)no2)ccc1OC(C)C [Compound 17, 3-(4-Imidazol-1-ylmethyl-phenyl)-5-(4-isopropoxy-3-methyl-phenyl)-[1,2,4]oxadiazole] | 133 | 10.3
30 | Cc1cc(-c2nc(-c3ccc(Cn4ccnc4)cc3C)no2)ccc1OC(C)C [Compound 18, 3-(4-Imidazol-1-ylmethyl-2-methyl-phenyl)-5-(4-isopropoxy-3-methyl-phenyl)-[1,2,4]oxadiazole] | 94.6 | 19.8
31 | Cc1cc(Cn2ccnc2)ccc1-c1noc(-c2ccc(OC(C)C)c([N+](=O)[O-])c2)n1 [Compound 19, 3-(4-Imidazol-1-ylmethyl-2-methyl-phenyl)-5-(4-isopropoxy-3-nitro-phenyl)-[1,2,4]oxadiazole] | 102 | 8.98
